The text below walks through data of ChEMBL document CHEMBL1250531, “Comparative nuclease and anti-cancer properties of the naturally occurring malabaricones” (Bioorg Med Chem, 2010).

Broadly, the pIC50 is −log10 of the IC50, conventionally taken in molar units.

pIC50: −log10 of the molar value. Active and inactive are the calls of the source. The calls are words filed in the database; no cut-off is given here.

For data set [1], the system named is Nucleic Acid. Nature of the data set: Induction of Escherichia coli pBR322 DNA cleavage assessed as open circular form of DNA at 25 uM after 45 mins by agarose gel electrophoresis in presence of copper. It counts as nucleic-acid assay.
The subject of data set [2] is Nucleic Acid. Nature of the data set: Induction of Escherichia coli pBR322 DNA cleavage at 25 uM after 45 mins under anoxic condition by agarose gel electrophoresis in presence of copper. It counts as nucleic-acid assay.
For data set [3], the system named is Nucleic Acid. Nature of the data set: Induction of Escherichia coli pBR322 DNA cleavage assessed as linear form of DNA at 25 uM after 45 mins by agarose gel electrophoresis in presence of copper. It counts as nucleic-acid assay.
The test system of data set [4] is MCF7. Nature of the data set: Cytotoxicity against human MCF7 cells after 72 hrs by MTT assay. As to conditions: for pIC50: MCF7, 72 h. It is filed as functional, cell-based. (In general: Formazan colour is commonly taken as a measure of viable cells.)
For data set [5], the system named is MCF7. Nature of the data set: Cytotoxicity against human MCF7 cells at 100 uM after 72 hrs by MTT assay. It counts as functional, cell-based.
The subject of data set [6] is MCF7. Nature of the data set: Ratio of compound IC50 to curcumin IC50 for human MCF7 cells. It counts as functional.
Data set [7] relates to MCF7. Nature of the data set: Cytotoxicity against human MCF7 cells at 50 uM after 72 hrs by MTT assay relative to control. It is filed as functional.
In data set [8] the test system is MCF7. Nature of the data set: Cytotoxicity against human MCF7 cells assessed as cell viability at 5 uM after 72 hrs by MTT assay pretreated with 1 mM of NAC relative to control. It is filed as functional.
The subject of data set [9] is Nucleic Acid. Nature of the data set: Induction of Escherichia coli pBR322 DNA cleavage at 25 uM after 45 mins by agarose gel electrophoresis. It is filed as nucleic-acid assay.
Data set [10] has as its system Nucleic Acid. Nature of the data set: Induction of Escherichia coli pBR322 DNA cleavage at 25 uM after 45 mins by agarose gel electrophoresis in presence of <100 uM of copper. It counts as nucleic-acid assay.
Data set [11] relates to Nucleic Acid. Nature of the data set: Induction of Escherichia coli pBR322 DNA cleavage at 5 to 10 uM uM after 45 mins by agarose gel electrophoresis in presence of 100 uM of copper. It counts as nucleic-acid assay.
For data set [12], the system named is Nucleic Acid. Nature of the data set: Induction of Escherichia coli pBR322 DNA cleavage assessed as supercoiled form of DNA at 25 uM after 45 mins by agarose gel electrophoresis in presence of 100 uM of copper. It counts as nucleic-acid assay.
Data set [13] concerns Nucleic Acid. Nature of the data set: Induction of Escherichia coli pBR322 DNA cleavage assessed as open circular form of DNA at 25 uM after 30 mins by agarose gel electrophoresis in presence of 100 uM of copper. It is filed as nucleic-acid assay.
The subject of data set [14] is Nucleic Acid. Nature of the data set: Induction of Escherichia coli pBR322 DNA cleavage at 25 uM after 45 mins by agarose gel electrophoresis in presence of 100 uM of copper and 250 uM of EDTA. It counts as nucleic-acid assay.
The test system of data set [15] is Nucleic Acid. Nature of the data set: Induction of Escherichia coli pBR322 DNA cleavage at 25 uM after 45 mins by agarose gel electrophoresis in presence of 100 uM of copper and 250 uM of neocuproine. It counts as nucleic-acid assay.
Data set [16] relates to Nucleic Acid. Nature of the data set: Induction of Escherichia coli pBR322 DNA cleavage at 25 uM after 45 mins by agarose gel electrophoresis in presence of 100 uM of copper and 100 mM of mannitol. It is filed as nucleic-acid assay.
For data set [17], the system named is Nucleic Acid. Nature of the data set: Induction of Escherichia coli pBR322 DNA cleavage at 25 uM after 45 mins by agarose gel electrophoresis in presence of 100 uM of copper and 250 U/ml of superoxide dismutase. It counts as nucleic-acid assay.
Data set [18] deals with Nucleic Acid. Nature of the data set: Induction of Escherichia coli pBR322 DNA cleavage at 25 uM after 45 mins by agarose gel electrophoresis in presence of 100 uM of copper and 500 mM of mannitol. It is filed as nucleic-acid assay.
For data set [19], the system named is Nucleic Acid. Nature of the data set: Induction of Escherichia coli pBR322 DNA cleavage at 25 uM after 45 mins by agarose gel electrophoresis in presence of 100 uM of copper and 500 U/ml of superoxide dismutase. It counts as nucleic-acid assay.
For data set [20], the system named is Nucleic Acid. Nature of the data set: Induction of Escherichia coli pBR322 DNA cleavage at 25 uM after 45 mins by agarose gel electrophoresis in presence of 100 uM of copper and 100 mM of DMSO. It is filed as nucleic-acid assay.
For data set [21], the system named is Nucleic Acid. Nature of the data set: Induction of Escherichia coli pBR322 DNA cleavage at 25 uM after 45 mins by agarose gel electrophoresis in presence of 100 uM of copper and 100 mM of sodium azide. It is filed as nucleic-acid assay.
The test system of data set [22] is Nucleic Acid. Nature of the data set: Induction of Escherichia coli pBR322 DNA cleavage at 25 uM after 45 mins by agarose gel electrophoresis in presence of 100 uM of copper and 500 U/ml of catalase. It is filed as nucleic-acid assay.
Data set [23] concerns Nucleic Acid. Nature of the data set: Induction of Escherichia coli pBR322 DNA cleavage assessed as supercoiled form of DNA at 25 uM after 45 mins by agarose gel electrophoresis in presence of 100 uM of copper and EDTA. It is filed as nucleic-acid assay.
In data set [24] the test system is Nucleic Acid. Nature of the data set: Induction of Escherichia coli pBR322 DNA cleavage assessed as supercoiled form of DNA at 25 uM after 45 mins by agarose gel electrophoresis in presence of 100 uM of copper and neocuproine. It counts as nucleic-acid assay.
For data set [25], the system named is Nucleic Acid. Nature of the data set: Induction of Escherichia coli pBR322 DNA cleavage assessed as supercoiled form of DNA at 25 uM after 45 mins by agarose gel electrophoresis in presence of 100 uM of copper and sodium azide. It counts as nucleic-acid assay.
For data set [26], the system named is Nucleic Acid. Nature of the data set: Induction of Escherichia coli pBR322 DNA cleavage assessed as supercoiled form of DNA at 25 uM after 45 mins by agarose gel electrophoresis in presence of 100 uM of copper and catalase. It counts as nucleic-acid assay.
Data set [27] can be described thus: Induction of copper chelation assessed as compound copper complex formation at 25 uM by absorption spectroscopic analysis. It is filed as physicochemical.
Data set [28] has as its system Calf thymus DNA. Nature of the data set: Binding affinity to calf thymus DNA at 50 uM after 5 mins by absorption spectroscopic analysis. It is filed as nucleic-acid assay. As to conditions: Bos taurus.
The subject of data set [29] is Calf thymus DNA. Nature of the data set: Binding affinity to calf thymus DNA assessed as increase of ethidium bromide fluorescence quenching at 0.2 mM after 30 mins. It counts as nucleic-acid assay. As to conditions: Bos taurus.
The subject of data set [30] is Calf thymus DNA. Nature of the data set: Binding affinity to calf thymus DNA assessed as increase of viscosity of DNA solution at 0.2 mM after 30 mins. It is filed as nucleic-acid assay. The note with it: Bos taurus.
Data set [31] is described as follows: Induction of superoxide radical production at 100 uM after 20 mins by NBT reduction assay relative to control in presence of 100 uM of copper. It is filed as physicochemical.
A short description of data set [32]: Induction of hydrogen peroxide production at 100 uM after 20 mins by horse radish peroxidase assay relative to control in presence of 100 uM of copper. It counts as physicochemical.
Data set [33] relates to MCF7. Nature of the data set: Induction of morphological changes in human MCF7 cells at 2.5 to 40 uM after 24 hrs by phase contrast microscopic analysis. It counts as functional, cell-based.
Data set [34] deals with MCF7. Nature of the data set: Induction of apoptosis in human MCF7 cells assessed as DNA ladder formation after 24 hrs using ethidium bromide staining by agarose gel electrophoresis. It counts as functional, cell-based.
Data set [35] concerns MCF7. Nature of the data set: Induction of ROS production in human MCF7 cells after 3 hrs by DCFDA assay. It counts as functional, cell-based.
In data set [36] the test system is MCF7. Nature of the data set: Induction of ROS production in human MCF7 cells at 10 uM after 3 hrs by DCFDA assay relative to control. It is filed as functional.
Data set [37] concerns MCF7. Nature of the data set: Induction of ROS production in human MCF7 cells at 15 uM after 3 hrs by DCFDA assay relative to control. It is filed as functional.
Data set [38] relates to MCF7. Nature of the data set: Induction of ROS production in human MCF7 cells at 1 mM after 3 hrs by DCFDA assay relative to control. It is filed as functional.
For data set [39], the system named is MCF7. Nature of the data set: Cytotoxicity against human MCF7 cells assessed as cell viability at 5 uM after 72 hrs by MTT assay. As to conditions: MCF7, 72 h, read-out: Activity. It counts as functional.

As to `O=C(CCCCCCCCc1ccc2c(c1)OCO2)c1c(O)cccc1O`, the outcome in the data set on Nucleic Acid [1] was Active. For the same compound, the outcome with Nucleic Acid [2] and in the data set on Nucleic Acid [3] was inactive. In the data set with MCF7 [4], this compound gave a pIC50 of 4.80.

As to `C=CCc1ccc(O)c(O)c1`, in the data set on MCF7 [5], the outcome was inactive.

For the compound `O=C(CCCCCCCCc1ccc(O)cc1)c1c(O)cccc1O`, the outcome with Nucleic Acid [1] was Active.

In the case of `COc1cc(/C=C/C(=O)CC(=O)/C=C/c2ccc(O)c(OC)c2)ccc1O` [CURCUMIN], in the data set with MCF7 [4], the pIC50 is 4.61. In addition, the “fold change (FC)” value with MCF7 [6] came out at 4.

`O=C(CCCCCCCCc1ccccc1)c1c(O)cccc1O` [MALABARICONE A]: the outcome with Nucleic Acid [1] and in the data set on Nucleic Acid [2] was inactive. Besides, the result in the data set on Nucleic Acid [3] was Active. In addition, the values for the Activity entry in the data set on MCF7 [4] and in the data set with MCF7 [7] were “Dose-dependent effect” and 12%, respectively.

On to `O=C(CCCCCCCCc1ccc(O)c(O)c1)c1c(O)cccc1O` [MALABARICONE C], for which the Activity in the data set on MCF7 [8] is 75.32%; in the data set on Nucleic Acid [23], 76.2%; in the data set on Nucleic Acid [24], 98.5%; in the data set with Nucleic Acid [25], 93.1%; with Nucleic Acid [26], 82%; in data set [27], “Active”. Further, the Activity in the data set on Calf thymus DNA [29] is 24.4%; in data set [31], 42%; in [32], 85%; in the data set with MCF7 [34] it was “Dose-dependent effect”; in the data set on MCF7 [35] it was “Dose-dependent effect”; with MCF7 [36], 26%. For the same compound, the Activity with MCF7 [37] worked out at 50%; in the data set with MCF7 [38], 71%. Also, the result with Nucleic Acid [1], in the data set with Nucleic Acid [3], with Nucleic Acid [11], with Nucleic Acid [13], in the data set on Nucleic Acid [16] and in the data set on Nucleic Acid [17] was Active. In addition, the outcome in the data set with Nucleic Acid [18], in the data set with Nucleic Acid [19], in the data set with Nucleic Acid [20], in the data set with Calf thymus DNA [28], in the data set on Calf thymus DNA [30] and in the data set with MCF7 [33] was Active. Moreover, the result in the data set on Nucleic Acid [9], in the data set with Nucleic Acid [10], with Nucleic Acid [12], in the data set on Nucleic Acid [14], with Nucleic Acid [15] and with Nucleic Acid [21] was inactive. For the same compound, the outcome in the data set with Nucleic Acid [22] was inactive. Also, in the data set on MCF7 [4], the pIC50 was 5.28. The viability at 5 µM in the data set on MCF7 [39] was 45.3%.
